Molecular target: T1, human CXCR4 receptor (Homo sapiens, UniProt P61073)
T1 construct: expressed in transfected cells
Assay: Measurement of intracellular Ca+2 responses (FLIPR), antagonism of the SDF-1α response
Assay type: cell-based
Details: for IC50: HEK-Gqi5 cells stably expressing human CXCR4, Fluo-4 FLIPR, antagonism of SDF-1α 1.9 nM (EC65); for CXCR4 (% Inh): percent antagonism of SDF-1α 1.9 nM (EC65) response, HEK-Gqi5 human CXCR4 cells, value in brackets
Procedure: Measurement of Intracellular Ca^+2 Responses for CXCR4 Compounds
HEK-Gqi5 cells stably expressing the human CXCR4 receptor were utilized for these studies. The growth media for the CXCR4 receptor expressing cell line was DMEM high glucose medium supplemented with 10% fetal bovine serum (FBS), 1% antibiotic-antimycotic, 50 ug/ml hygromycin B, and 400 μg/ml geneticin. Ten thousand cells per well were plated into 384-well poly-D-lysine coated plates one day prior to use. On the day of the experiment, the cells were washed twice with Hank's Balanced Salt Solution supplemented with 20 mM hepes (HBSS/hepes buffer). The cells were then dye loaded with 2 uM Fluo-4 diluted in the HBSS/Hepes buffer and incubated at 37° C. for 40 minutes. Extracellular dye was removed by washing the cell plates four times prior to placing the plates in the FLIPR (Fluorometric Imaging Plate Reader, Molecular Devices). Ligands were diluted in HBSS/Hepes buffer and prepared in 384-well microplates. The positive control, stromal-cell derived factor-1 (SDF-1α), was diluted in HBSS/Hepes buffer with 4 mg/ml fatty acid free bovine serum albumin. Two drug additions were made by the FLIPR. The first drug addition was the test drug in concentrations ranging from 2.44 nM to 40,000 nM. After this addition, fluorescent measurements were taken. Any calcium release in response to this drug addition represents agonist activity of the compounds. The second drug addition was SDF-1α at a final concentration of 1.9 nM (EC65). Fluorescence measurements were also taken after this second drug addition and were used to determine the ability of the test compounds to antagonize the SDF-1α response. Results were expressed as EC50 and efficacy values, as well as IC50 and percent antagonism values. As controls, SDF-1α (CXCR4 agonist) and AMD3100 (CXCR4 antagonist) dose-response curves were also determined in each study.

T1 sequence (P61073 whole entry): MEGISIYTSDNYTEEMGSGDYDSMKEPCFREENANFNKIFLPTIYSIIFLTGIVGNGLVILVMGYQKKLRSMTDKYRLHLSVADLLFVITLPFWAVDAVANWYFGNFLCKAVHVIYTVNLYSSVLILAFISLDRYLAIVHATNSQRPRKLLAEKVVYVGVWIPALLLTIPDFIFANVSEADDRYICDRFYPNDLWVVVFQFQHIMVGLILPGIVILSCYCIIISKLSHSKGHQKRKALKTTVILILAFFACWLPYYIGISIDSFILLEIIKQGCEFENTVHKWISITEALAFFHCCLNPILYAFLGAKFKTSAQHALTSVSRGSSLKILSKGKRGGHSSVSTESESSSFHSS

IC50 (values in nM) [nM]	CXCR4 (% Inh) [%]	IC50 (values given in μM) [nM]	Molecule
	100	1400	CCN(CC)CCCNc1nc(NC2CCN(Cc3cccc(C)c3N(C)C)CC2)c2ccccc2n1 [Compound 152, N˜2˜-[3-(Diethylamino)propyl]-N˜4˜-{1-[2-(dimethylamino)-3-methylbenzyl]piperidin-4-yl}quinazoline-2,4-diamine]
762	97		COc1cccc(N(C)C)c1CN1CCC(Nc2nc(NCCNC(C)=O)nc3ccccc23)CC1 [Compound 118, N-(2-(4-(1-(2-(Dimethylamino)-6-methoxybenzyl)piperidin-4-ylamino)quinazolin-2-ylamino)ethyl)acetamide]
	100	2100	COc1cccc(N(C)C)c1CN1CCC(Nc2nc(N3CCCN(C)CC3)nc3ccccc23)CC1 [Compound 217, N-(1-(2-(Dimethylamino)-6-methoxybenzyl)piperidin-4-yl)-2-(4-methyl-1,4-diazepan-1-yl)quinazolin-4-amine]
978	75		CN(C)CCCNc1nc(NC2CCN(Cc3ccccc3-n3cccc3)CC2)c2ccccc2n1 [Compound 130, N4-(1-(2-(1H-Pyrrol-1-yl)benzyl)piperidin-4-yl)-N2-(3-(dimethylamino)propyl)quinazoline-2,4-diamine]
	49	> 10000	COc1cc2nc(NCCCN(C)C)nc(NCCNCc3c(OC)cccc3N(C)C)c2cc1OC [Compound 178, N˜4˜-(2-{[2-(Dimethylamino)-6-methoxybenzyl]amino}ethyl)-N˜2˜-[3-(dimethylamino)propyl]-6,7-dimethoxyquinazoline-2,4-diamine]

Further lines, the molecule ahead of its results:

Molecule	IC50 (values in nM) [nM]	CXCR4 (% Inh) [%]	IC50 (values given in μM) [nM]
CCN(CC)CCNc1nc(NC2CCN(Cc3c(OC)cccc3N(C)C)CC2)c2cc(OC)c(OC)cc2n1 [Compound 41, N2-(2-(Diethylamino)ethyl)-N4-(1-(2-(dimethylamino)-6-methoxybenzyl)piperidin-4-yl)-6,7-dimethoxyquinazoline-2,4-diamine]	360	100	
COc1cccc(N(C)C)c1CN1CCC(Nc2nc(NCc3ccccn3)nc3ccccc23)CC1 [Compound 84, N4-(1-(2-(Dimethylamino)-6-methoxybenzyl)piperidin-4-yl)-N2-(pyridin-2-ylmethyl)quinazoline-2,4-diamine]	574	95	
COc1cccc(N(C)C)c1CN1CCC(Nc2nc(NCC[C@@H]3CCCN3C(=O)OC(C)(C)C)nc3ccccc23)CC1 [Compound 114, (S)-tert-Butyl 2-(2-(4-(1-(2-(Dimethylamino)-6-methoxybenzyl)piperidin-4-ylamino)quinazolin-2-ylamino)ethyl)pyrrolidine-1-carboxylate]		75	2100
COc1cccc(N(C)C)c1CN1CCC(Nc2nc(NCC[C@H]3CCCN3C(=O)OC(C)(C)C)nc3ccccc23)CC1 [Compound 116, (R)-tert-Butyl 2-(2-(4-(1-(2-(Dimethylamino)-6-methoxybenzyl)piperidin-4-ylamino)quinazolin-2-ylamino)ethyl)pyrrolidine-1-carboxylate]		83	2200
COc1cccc(N(C)C)c1CN1CCC(Nc2nc(NCCCN3CCCC3=O)nc3ccccc23)CC1 [Compound 89, 1-(3-(4-(1-(2-(Dimethylamino)-6-methoxybenzyl)piperidin-4-ylamino)quinazolin-2-ylamino)propyl)pyrrolidin-2-one]		92	1400
N˜4˜-(1-{2-(Dimethylamino)-6-[2-(dimethylamino)ethoxy]benzyl}piperidin-4-yl)-6,7-dimethoxy-N2(1H-1,2,4-triazol-5-ylmethyl)quinazoline-2,4-diamine [Compound 211]	25	98	
CCN(CC)CCCNc1nc(NC2CCN(Cc3ccccc3N(C)C)CC2)c2cc(OC)c(OC)cc2n1 [Compound 30, N2-(3-(Diethylamino)propyl)-N4-(1-(2-(dimethylamino)benzyl)piperidin-4-yl)-6,7-dimethoxyquinazoline-2,4-diamine]	270	100	

— patent US8193203B2, “Bicyclic compounds having activity at the CXCR4 receptor” (Allergan, Inc., priority 2008, dated 2012)
